{
  "source": "patent US20050037946A1",
  "about": "“Methods and compositions for treating cardiovascular disease using 1722, 10280, 59917, 85553, 10653, 9235, 21668, 17794, 2210, 6169, 10102, 21061, 17662, 1468, 12282, 6350, 9035, 1820, 23652, 7301, 8925, 8701, 3533, 9462, 9123, 12788, 17729, 65552, 1261, 21476, 33770, 9380, 2569654, 33556, 53656, …” (Millennium Pharmaceuticals, Inc., priority 2003, published 2005)",
  "key": {"7301 mRNA": {"tested_on": "7301 mRNA", "assay": "7301 mRNA in livers of mice treated with ciprofibrate (TaqMan)", "type": "in vivo", "conditions": "livers of mice during treatment", "source_text": "(§1) This example describes the TaqMan™ procedure. The Taqman™ procedure is a quantitative, reverse transcription PCR-based approach for detecting mRNA. The RT-PCR reaction exploits the 5′ nuclease activity of AmpliTaq Gold™ DNA Polymerase to cleave a TaqMan™ probe during PCR. Briefly, cDNA was generated from the samples of interest, e.g., heart, kidney, liver, skeletal muscle, and various vessels, and used as the starting material for PCR amplification. In addition to the 5′ and 3′ gene-specific primers, a gene-specific oligonucleotide probe (complementary to the region being amplified) was included in the reaction (i.e., the Taqman™ probe). […]\n(§2) During the PCR reaction, cleavage of the probe separates the reporter dye and the quencher dye, resulting in increased fluorescence of the reporter. Accumulation of PCR products is detected directly by monitoring the increase in fluorescence of the reporter dye. When the probe is intact, the proximity of the reporter dye to the quencher dye results in suppression of the reporter fluorescence. […]"}, "9123 mRNA": {"tested_on": "9123 mRNA", "assay": "9123 mRNA in livers of mice treated with ciprofibrate (TaqMan)", "type": "in vivo", "conditions": "livers of mice during treatment", "source_text": "as §1, §2"}, "33770 mRNA": {"tested_on": "33770 mRNA", "assay": "33770 mRNA in livers of mice, ciprofibrate (TaqMan)", "type": "in vivo", "conditions": "p=0.02", "source_text": "as §1, §2"}, "9380 mRNA [1]": {"tested_on": "9380 mRNA", "assay": "9380 mRNA in livers of mice treated with ciprofibrate (TaqMan)", "type": "in vivo", "source_text": "as §1, §2"}, "2569654 mRNA [2]": {"tested_on": "2569654 mRNA", "assay": "2569654 mRNA in livers of mice treated with Ciprofibrate (TaqMan)", "type": "in vivo", "source_text": "as §1, §2"}, "2552 mRNA [3]": {"tested_on": "2552 mRNA", "assay": "2552 mRNA in livers of mice (TaqMan)", "type": "in vivo", "source_text": "as §1, §2"}, "19319 mRNA [4]": {"tested_on": "19319 mRNA", "assay": "19319 mRNA in livers of mice administered ciprofibrate (TaqMan)", "type": "in vivo", "source_text": "as §1, §2"}, "43969": {"tested_on": "43969", "assay": "43969 expression in livers of mice administered ciprofibrate (TaqMan)", "type": "in vivo", "source_text": "as §1, §2"}, "8921 mRNA [5]": {"tested_on": "8921 mRNA", "assay": "8921 mRNA in liver samples of mice treated with ciprofibrate (microarray)", "type": "in vivo", "conditions": "liver samples of treated mice vs control liver samples, p=0.002"}, "554 mRNA": {"tested_on": "554 mRNA", "assay": "554 mRNA in livers of mice treated with ciprofibrate (microarray)", "type": "in vivo", "conditions": "livers of treated mice vs control liver samples, p=0.006"}, "16408 mRNA": {"tested_on": "16408 mRNA", "assay": "16408 mRNA in livers of mice treated with ciprofibrate (microarray)", "type": "in vivo"}, "42028": {"tested_on": "42028", "assay": "42028 expression in livers of mice treated with ciprofibrate (microarray)", "type": "in vivo"}, "112091": {"tested_on": "112091", "assay": "112091 expression in livers of wild-type mice treated with ciprofibrate", "type": "in vivo"}, "54946 mRNA": {"tested_on": "54946 mRNA", "assay": "54946 mRNA in livers of mice, ciprofibrate (microarray or RT-PCR)", "type": "in vivo", "conditions": "p=0.008"}, "10653 mRNA": {"tested_on": "10653 mRNA", "assay": "10653 mRNA in livers of marmosets treated with lipid-lowering therapies (TaqMan)", "type": "in vivo"}, "9325 mRNA": {"tested_on": "9325 mRNA", "assay": "9325 mRNA in livers of marmosets (TaqMan)", "type": "in vivo", "source_text": "as §1, §2"}, "21668 mRNA": {"tested_on": "21668 mRNA", "assay": "21668 mRNA in marmoset models treated with cholesterol lowering agents (TaqMan)", "type": "in vivo"}, "10102 mRNA": {"tested_on": "10102 mRNA", "assay": "10102 mRNA regulation by lipid lowering drugs (TaqMan)"}, "8925 mRNA": {"tested_on": "8925 mRNA", "assay": "8925 mRNA in livers of marmosets treated with lipid-lowering therapies (TaqMan)", "type": "in vivo"}, "8701 mRNA": {"tested_on": "8701 mRNA", "assay": "8701 mRNA in livers of marmosets treated with lipid-lowering therapies (TaqMan)", "type": "in vivo"}, "3533 mRNA": {"tested_on": "3533 mRNA", "assay": "3533 mRNA regulation by lipid lowering drugs (TaqMan)", "source_text": "(§3) This example describes the TaqMan™ procedure. The Taqman™ procedure is a quantitative, reverse transcription PCR-based approach for detecting mRNA. The RT-PCR reaction exploits the 5′ nuclease activity of AmpliTaq Gold™ DNA Polymerase to cleave a TaqMan™ probe during PCR. Briefly, cDNA was generated from the samples of interest, e.g., heart, kidney, liver, skeletal muscle, and various vessels, and used as the starting material for PCR amplification. In addition to the 5′ and 3′ gene-specific primers, a gene-specific oligonucleotide probe (complementary to the region being amplified) was included in the reaction (i.e., the Taqman™ probe). The TaqMan™ probe includes the oligonucleotide with a fluorescent reporter dye covalently linked to the 5′ end of the probe (such as FAM (6-carboxyfluorescein), TET (6-carboxy4,7,2′,7′-tetrachlorofluorescein), JOE (6-carboxy-4,5-dichloro-2,7-dimethoxyfluorescein), or VIC) and a quencher dye (TAMRA (6-carboxy-N,N,N′,N′-tetramethylrhodamine) at the 3′ end of the probe.\n(§4) During the PCR reaction, cleavage of the probe separates the reporter dye and the quencher dye, resulting in increased fluorescence of the reporter. Accumulation of PCR products is detected directly by monitoring the increase in fluorescence of the reporter dye. When the probe is intact, the proximity of the reporter dye to the quencher dye results in suppression of the reporter fluorescence. During PCR, if the target of interest is present, the probe specifically anneals between the forward and reverse primer sites. The 5′-3′ nucleolytic activity of the AmpliTaq™ Gold DNA Polymerase cleaves the probe between the reporter and the quencher only if the probe hybridizes to the target. The probe fragments are then displaced from the target, and polymerization of the strand continues. The 3′ end of the probe is blocked to prevent extension of the probe during PCR. […] RNA was prepared using the trizol method and treated with DNase to remove contaminating genomic DNA. cDNA was synthesized using standard techniques."}, "9462 mRNA": {"tested_on": "9462 mRNA", "assay": "9462 mRNA regulation by lipid lowering drugs (TaqMan)", "source_text": "as §1, §2"}, "17729 mRNA": {"tested_on": "17729 mRNA", "assay": "17729 mRNA in marmoset models (TaqMan)", "type": "in vivo"}, "9380 mRNA [6]": {"tested_on": "9380 mRNA", "assay": "9380 mRNA in livers of marmosets (TaqMan)", "type": "in vivo"}, "2569654 mRNA [7]": {"tested_on": "2569654 mRNA", "assay": "2569654 mRNA in marmoset models (TaqMan)", "type": "in vivo", "source_text": "as §3, §4"}, "53656 mRNA": {"tested_on": "53656 mRNA", "assay": "53656 mRNA in livers of Marmosets (TaqMan)", "type": "in vivo"}, "2552 mRNA [8]": {"tested_on": "2552 mRNA", "assay": "2552 mRNA in marmoset livers (TaqMan)", "type": "in vivo"}, "19319 mRNA [9]": {"tested_on": "19319 mRNA", "assay": "19319 mRNA in livers of marmosets (TaqMan)", "type": "in vivo"}, "8921 mRNA [10]": {"tested_on": "8921 mRNA", "assay": "8921 mRNA expression in marmosets", "type": "in vivo"}},
  "data": [
    {"compound": "CC(C)(Oc1ccc(C2CC2(Cl)Cl)cc1)C(=O)O", "note": "(centres unmarked) [ciprofibrate]", "values": [
      {"measurement": "7301 mRNA expression", "setting": "7301 mRNA", "result": "down-regulated"},
      {"measurement": "9123 mRNA expression", "setting": "9123 mRNA", "result": "upregulated"},
      {"measurement": "33770 mRNA downregulated", "setting": "33770 mRNA", "result": 0.76, "unit": "fold"},
      {"measurement": "9380 mRNA expression", "setting": "9380 mRNA [1]", "result": "downregulated"},
      {"measurement": "2569654 mRNA expression", "setting": "2569654 mRNA [2]", "result": "significantly downregulated"},
      {"measurement": "2552 mRNA expression", "setting": "2552 mRNA [3]", "result": "downregulate"},
      {"measurement": "19319 mRNA expression", "setting": "19319 mRNA [4]", "result": "upregulated"},
      {"measurement": "43969 expression", "setting": "43969", "result": "downregulated"},
      {"measurement": "8921 mRNA downregulated", "setting": "8921 mRNA [5]", "result": 0.59, "unit": "fold"},
      {"measurement": "554 mRNA downregulated", "setting": "554 mRNA", "result": 0.68, "unit": "fold"},
      {"measurement": "16408 mRNA expression", "setting": "16408 mRNA", "result": "down-regulated"},
      {"measurement": "42028 expression", "setting": "42028", "result": "down-regulated"},
      {"measurement": "112091 expression", "setting": "112091", "result": "down-regulated"},
      {"measurement": "54946 mRNA upregulated", "setting": "54946 mRNA", "result": 2.0, "unit": "fold"}
    ]},
    {"compound": "cholestyramine", "values": [
      {"measurement": "10653 mRNA expression", "setting": "10653 mRNA", "result": "downregualted"},
      {"measurement": "9325 mRNA upregulated", "setting": "9325 mRNA", "result": 1.4, "unit": "fold"},
      {"measurement": "21668 mRNA expression", "setting": "21668 mRNA", "result": "marked increase"},
      {"measurement": "10102 mRNA expression", "setting": "10102 mRNA", "result": "significantly upregulated"},
      {"measurement": "8925 mRNA expression", "setting": "8925 mRNA", "result": "upregulated"},
      {"measurement": "8701 mRNA expression", "setting": "8701 mRNA", "result": "upregulated"},
      {"measurement": "3533 mRNA expression", "setting": "3533 mRNA", "result": "significantly downregulated"},
      {"measurement": "9462 mRNA expression", "setting": "9462 mRNA", "result": "upregulated"},
      {"measurement": "17729 mRNA expression", "setting": "17729 mRNA", "result": "upregulated"},
      {"measurement": "9380 mRNA expression", "setting": "9380 mRNA [6]", "result": "upregulated"},
      {"measurement": "2569654 mRNA expression", "setting": "2569654 mRNA [7]", "result": "upregulated"},
      {"measurement": "53656 mRNA upregulated", "setting": "53656 mRNA", "result": 1.8, "unit": "fold"},
      {"measurement": "2552 mRNA expression", "setting": "2552 mRNA [8]", "result": "upregulated"},
      {"measurement": "19319 mRNA expression", "setting": "19319 mRNA [9]", "result": "upregulated"},
      {"measurement": "increase in 8921 mRNA expression", "setting": "8921 mRNA [10]", "result": 1.5, "unit": "fold"}
    ]}
  ]
}
